Read-outs that look alike come from different tables or passages of the source.
Experiments:
[1] = design: species or system male mice (NMRI); conditions: in vivo
[2] = design: species or system male white mice; conditions: mouse, in vivo
[3] = design: species or system male mice; conditions: mouse, in vivo
in vivo = conditions: mouse
[4] = design: species or system male rats (SIV; printed "rate"); conditions: rat, in vivo
[5] = design: species or system mice and rats; conditions: in vivo

Question: For `CCOC(=O)[C@]1(c2ccccc2)C=C[C@@H](N2CCCCC2)CC1` (relative stereo) [4r-(Piperidino-1')-1c-phenyl-1t-ethoxycarbonyl-cyclohexene-(2)], which “Aggressive Mouse ED 50” value ([1]; sc) is on record?
Answer: no effect

Question: And the “Reduction of Spontaneous Motility by % Photocage” value (“Reduction … by % Photocage” below) ([2]; sc, 40 mg/kg)?
Answer: 11%

Question: What about the “Analgesia ED 50 Phenyl-p-Quinone Writhing Test” value ([3]; sc) of the same compound?
Answer: > 20.0 mg/kg

Question: And the LD50 at 48 h (in vivo; sc)?
Answer: 390 mg/kg

Question: And the “Decrease in Body Temperature in ° C” value ([4]; sc, 50 mg/kg)?
Answer: -0.1 °C

Question: What does the source list for `CCOC(=O)[C@]1(c2ccccc2)C=C[C@H](N2CCN(c3ccccc3)CC2)CC1` (relative stereo) [Example 5, 4r-(4'-Phenylpiperazino-1')-1t-phenyl-1c-ethoxycarbonylcyclohexene-(2)]?
Answer: Aggressive Mouse ED 50 ([1]; po, 30 min): 25 mg/kg; Reduction of Spontaneous Motility by % Photocage ([2]; 10 mg/kg): 59%; Reduction of Spontaneous Motility by % Photocage ([2]; 50 mg/kg): 94%; Reduction of Spontaneous Motility by % Photocage ([2]; sc, 5 mg/kg): 71%; Analgesia ED 50 Phenyl-p-Quinone Writhing Test ([3]; po): 25.0 mg/kg; LD50 at 48 h (in vivo; po): 1600 mg/kg; Decrease in Body Temperature in ° C ([4]; 100 mg/kg): -2.6 °C

Question: Which results are given for `CCOC(=O)C1(c2ccccc2)CCN(C)CC1` [Dolantin, Ethyl 1-methyl 4-phenyl-piperidin-4-carboxylate]?
Answer: Aggressive Mouse ED 50 [1]: no effect; Aggressive Mouse ED 50 ([1]; sc, 30 min): > 15 mg/kg; Neuroleptic activity (in words) [5]: no significant neuroleptic activity; Reduction of Spontaneous Motility by % Photocage [2]: no effect; Reduction of Spontaneous Motility by % Photocage ([2]; sc, 15 mg/kg): 30%; Analgesia ED 50 Phenyl-p-Quinone Writhing Test ([3]; po): 28.5 mg/kg; Analgesia ED 50 Phenyl-p-Quinone Writhing Test ([3]; sc): 6.3 mg/kg; LD50 at 48 h (in vivo; po): 252 mg/kg; LD50 at 48 h (in vivo; sc): 154 mg/kg; Decrease in Body Temperature in ° C [4]: no effect; Decrease in Body Temperature in ° C ([4]; sc): no effect

Question: With `CCOC(=O)[C@]1(c2ccccc2)C=C[C@H](N(C)C)CC1` (relative stereo) [Example 1, 4r-Dimethylamino-1t-phenyl-1c-ethoxycarbonyl-cyclohexene-(2)] as the compound, how does the “Aggressive Mouse ED 50” value ([1]; sc, 30 min) read?
Answer: 4.0 mg/kg

Question: And the “Reduction … by % Photocage” value ([2]; sc, 5 mg/kg)?
Answer: 38%

Question: What about the “Reduction … by % Photocage” value ([2]; sc, 10 mg/kg) of the same compound?
Answer: 82%

Question: And the “Analgesic potency/activity (in words)” value [3]?
Answer: more potent analgesics than (±)-3r-dimethylamino-4c-phenyl-4t-ethoxycarbonyl-cyclohexene-(1) (Valoron ^R), a positional isomer of the former and Dolantin ^R

Question: What about the “Analgesia ED 50 Phenyl-p-Quinone Writhing Test” value ([3]; po) of the same compound?
Answer: 13.6 mg/kg

Question: And the “Analgesia ED 50 Phenyl-p-Quinone Writhing Test” value ([3]; sc)?
Answer: 3.0 mg/kg

Question: And the LD50 at 48 h (in vivo; po)?
Answer: 297 mg/kg

Question: And the LD50 at 48 h (in vivo; sc)?
Answer: 155 mg/kg

Question: And the “Decrease in Body Temperature in ° C” value ([4]; sc, 20 mg/kg)?
Answer: -1.4 °C

Question: Which “Reduction … by % Photocage” value ([2]; 50 mg/kg) does the source give for `CCOC(=O)[C@]1(c2ccccc2)C=C[C@@H](N2CCN(c3ccccc3OC)CC2)CC1` (relative stereo) [4r-[4'-(2-Methoxy-phenyl)piperazino-1']-1c-phenyl-1t-ethoxycarbonyl-cyclohexene-(2)] here?
Answer: 17%

Question: And the “Analgesia ED 50 Phenyl-p-Quinone Writhing Test” value ([3]; po)?
Answer: > 150.00 mg/kg

Question: And the LD50 at 48 h (in vivo; po)?
Answer: > 1600 mg/kg

Question: Which results are given for `CCOC(=O)[C@]1(c2ccccc2)C=C[C@@H](N2CCC(c3ccccc3)CC2)CC1` (relative stereo) [4r-(4'-Phenyl-piperidino-1')-1c-phenyl-1t-ethoxycarbonyl-cyclohexene-(2)]?
Answer: Aggressive Mouse ED 50 [1]: no effect; Reduction of Spontaneous Motility by % Photocage ([2]; 100 mg/kg): 79%; Analgesia ED 50 Phenyl-p-Quinone Writhing Test ([3]; po): ca. 75.0 mg/kg; LD50 at 48 h (in vivo; po): 850 mg/kg; Decrease in Body Temperature in ° C [4]: no effect

Question: Which “Aggressive Mouse ED 50” value ([1]; sc) does the source give for `CCOC(=O)[C@]1(c2ccccc2)C=C[C@@H](N(C)C)CC1` (relative stereo) [4r-Dimethyl-amino-1c-phenyl-1t-ethoxycarbonyl-cyclohexene-(2)] here?
Answer: no effect

Question: What about the “Reduction … by % Photocage” value ([2]; sc, 5 mg/kg) of the same compound?
Answer: 0%

Question: What about the “Reduction … by % Photocage” value ([2]; sc, 20 mg/kg) of the same compound?
Answer: 25%

Question: What about the “Analgesia ED 50 Phenyl-p-Quinone Writhing Test” value ([3]; po) of the same compound?
Answer: 118.0 mg/kg

Question: And the “Analgesia ED 50 Phenyl-p-Quinone Writhing Test” value ([3]; sc)?
Answer: 14.6 mg/kg

Question: What about the LD50 at 48 h (in vivo; po) of the same compound?
Answer: 490 mg/kg

Question: And the LD50 at 48 h (in vivo; sc)?
Answer: 136 mg/kg

Question: What about the “Decrease in Body Temperature in ° C” value ([4]; sc) of the same compound?
Answer: no effect

Question: With `CCOC(=O)[C@]1(c2ccccc2)C=C[C@H](N2CCN(c3ccccc3OC)CC2)CC1` (relative stereo) [Example 4, 4r-[4'-(2-Methoxyphenyl)piperazino-1']-1t-phenyl-1c-ethoxycarbonyl-cyclohexene-(2)] as the compound, how does the “Reduction … by % Photocage” value ([2]; 50 mg/kg) read?
Answer: 86%

Question: And the “Analgesia ED 50 Phenyl-p-Quinone Writhing Test” value ([3]; po)?
Answer: 50.0 mg/kg

Question: And the LD50 at 48 h (in vivo; po)?
Answer: ~2000 mg/kg

Question: Which “Reduction … by % Photocage” value ([2]; 10 mg/kg) does the source give for `CCOC(=O)[C@]1(c2ccccc2)C=C[C@@H](N2CCN(c3ccccc3)CC2)CC1` (relative stereo) [4r-(4'-Phenyl-piperazino-1')-1c-phenyl-1t-cyclohexene-(2)] here?
Answer: 34%

Question: What about the “Reduction … by % Photocage” value ([2]; sc, 5 mg/kg) of the same compound?
Answer: no effect

Question: What about the “Analgesia ED 50 Phenyl-p-Quinone Writhing Test” value ([3]; po) of the same compound?
Answer: > 50.0 mg/kg

Question: And the LD50 at 48 h (in vivo; po)?
Answer: ~1600 mg/kg

Question: What about the “Decrease in Body Temperature in ° C” value ([4]; 200 mg/kg) of the same compound?
Answer: -1.7 °C

Question: Which results are given for `CCOC(=O)[C@]1(c2ccccc2)C=C[C@H](N2CCC(c3ccccc3)CC2)CC1` (relative stereo) [Example 3, 4r-(4'-Phenylpiperidino-1')-1t-phenyl-1c-ethoxycarbonylcyclohexene-(2)]?
Answer: Aggressive Mouse ED 50 ([1]; po, 30 min): 30 mg/kg; Reduction of Spontaneous Motility by % Photocage ([2]; 25 mg/kg): 91%; Analgesia ED 50 Phenyl-p-Quinone Writhing Test ([3]; po): 10.0 mg/kg; LD50 at 48 h (in vivo; po): 800 mg/kg; Decrease in Body Temperature in ° C ([4]; 50 mg/kg): -0.5 °C

Question: Which “Aggressive Mouse ED 50” value ([1]; sc, 30 min) does the source give for `CCOC(=O)[C@]1(c2ccccc2)C=C[C@H](N2CCCCC2)CC1` (relative stereo) [Example 2, 4r-(Piperidino-1')-1t-phenyl-1c-ethoxycarbonyl-cyclohexene-(2)] here?
Answer: 8.0 mg/kg

Question: And the “Reduction … by % Photocage” value ([2]; sc, 10 mg/kg)?
Answer: 93%

Question: And the “Analgesia ED 50 Phenyl-p-Quinone Writhing Test” value ([3]; sc)?
Answer: 5.3 mg/kg

Question: What about the LD50 at 48 h (in vivo; sc) of the same compound?
Answer: 150 mg/kg

Question: And the “Decrease in Body Temperature in ° C” value ([4]; sc, 25 mg/kg)?
Answer: -1.6 °C

From patent US4008233A (priority 1972, dated 1977)
